# Measurements taken from patent publication US20110160223A1, “NMDA Receptor Antagonists for the Treatment of Neuropsychiatric Disorders” (priority 2008, published 2011).
# Like-named read-outs stand apart in the source and are kept apart here.
# Columns and labels:
# [1] = molecular target: NMDA receptor (NR1 + NR2 subunits) (Rattus norvegicus, UniProt P35439+Q00960); test: Two electrode voltage clamp recording from Xenopus laevis oocytes (pH dependence of NMDA antagonism); assay type: cell-based
# Chain of NMDA receptor (NR1 + NR2 subunits) (Q00960 27-1482, other chains not shown): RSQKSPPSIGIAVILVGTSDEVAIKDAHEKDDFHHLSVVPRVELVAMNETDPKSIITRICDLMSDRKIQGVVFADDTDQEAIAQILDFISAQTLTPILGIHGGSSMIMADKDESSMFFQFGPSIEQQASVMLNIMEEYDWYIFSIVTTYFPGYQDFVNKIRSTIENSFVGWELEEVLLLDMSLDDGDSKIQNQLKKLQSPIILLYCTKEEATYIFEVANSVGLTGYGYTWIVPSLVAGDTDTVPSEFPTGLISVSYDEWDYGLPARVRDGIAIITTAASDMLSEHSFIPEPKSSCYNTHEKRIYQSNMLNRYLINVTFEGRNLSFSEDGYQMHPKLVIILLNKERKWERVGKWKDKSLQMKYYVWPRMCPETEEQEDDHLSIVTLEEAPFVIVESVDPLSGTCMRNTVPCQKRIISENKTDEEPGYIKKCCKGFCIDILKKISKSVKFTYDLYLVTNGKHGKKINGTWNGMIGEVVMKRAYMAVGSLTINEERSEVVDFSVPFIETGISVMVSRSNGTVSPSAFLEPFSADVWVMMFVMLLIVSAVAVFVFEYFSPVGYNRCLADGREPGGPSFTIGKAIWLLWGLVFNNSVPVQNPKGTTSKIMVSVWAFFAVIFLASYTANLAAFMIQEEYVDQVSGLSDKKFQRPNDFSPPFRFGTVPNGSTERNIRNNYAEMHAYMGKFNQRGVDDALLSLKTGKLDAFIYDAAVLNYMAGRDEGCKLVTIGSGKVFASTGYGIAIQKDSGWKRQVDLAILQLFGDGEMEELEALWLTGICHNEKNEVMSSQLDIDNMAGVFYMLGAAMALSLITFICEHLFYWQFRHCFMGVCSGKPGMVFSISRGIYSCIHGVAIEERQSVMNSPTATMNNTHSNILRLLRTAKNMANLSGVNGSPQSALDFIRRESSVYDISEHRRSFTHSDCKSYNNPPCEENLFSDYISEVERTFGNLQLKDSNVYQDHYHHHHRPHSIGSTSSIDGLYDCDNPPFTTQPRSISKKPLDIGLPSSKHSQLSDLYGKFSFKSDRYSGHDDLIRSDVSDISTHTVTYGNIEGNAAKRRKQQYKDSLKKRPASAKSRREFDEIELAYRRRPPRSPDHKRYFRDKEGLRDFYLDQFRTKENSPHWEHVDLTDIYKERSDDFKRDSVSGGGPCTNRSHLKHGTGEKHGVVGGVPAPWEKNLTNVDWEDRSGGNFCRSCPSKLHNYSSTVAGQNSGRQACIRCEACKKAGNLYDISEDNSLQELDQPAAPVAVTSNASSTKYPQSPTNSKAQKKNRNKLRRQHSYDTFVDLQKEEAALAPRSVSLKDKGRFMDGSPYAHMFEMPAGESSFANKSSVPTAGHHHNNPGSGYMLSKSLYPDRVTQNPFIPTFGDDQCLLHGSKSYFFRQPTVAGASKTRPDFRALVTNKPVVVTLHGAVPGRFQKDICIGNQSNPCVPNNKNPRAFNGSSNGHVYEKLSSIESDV
# Experimental: cRNA was synthesized from linearized template cDNA for rat glutamate receptor subunits according to manufacturer specifications (Ambion). Quality of synthesized cRNA was assessed by gel electrophoresis, and quantity was estimated by spectroscopy and gel electrophoresis. Stage V and VI oocytes were surgically removed from the ovaries of large, well-fed and healthy Xenopus laevis anesthetized with 3-amino-benzoic acid ethyl ester (3 gm/l) as previously described. Clusters of isolated oocytes were incubated with 292 U/ml Worthington (Freehold, N.J.) type IV collagenase or 1.3 mg/ml collagenase (Life Technologies, Gaithersburg, Md.; 17018-029) for 2 hr in Ca^2+-free solution comprised of (in mM) 115 NaCl, 2.5 KCl, and 10 HEPES, pH 7.5, with slow agitation to remove the follicular cell layer. Oocytes were then washed extensively in the same solution supplemented with 1.8 mM CaCl2 and maintained in Barth's solution comprised of (in mM): 88 NaCl, 1 KCl, 2.4 NaHCO3, 10 HEPES, 0.82 MgSO4, 0.33 Ca(NO3)2, and 0.91 CaCl2 and supplemented with 100 μg/ml gentamycin, 10 μg/ml streptomycin, and 10 μg/ml penicillin. Oocytes were manually defolliculated and injected within 24 hrs of isolation with 3-5 ng of NR1 subunit cRNA and 7-10 ng of NR2 cRNA subunit in a 50 nl volume, or 5-10 ng of AMPA or kainate receptor cRNAs in a 50 nl volume, and incubated in Barth's solution at 18° C. for 1-7 d. Glass injection pipettes had tip sizes ranging from 10-20 microns, and were backfilled with mineral oil.
# Two electrode voltage-clamp recordings were made 2-7 days post-injection as previously described. Oocytes were placed in a dual-track plexiglass recording chamber with a single perfusion line that splits in a Y-configuration to perfuse two oocytes. Dual recordings were made at room temperature (23° C.) using two Warner OC725B two-electrode voltage clamp amplifiers, arranged as recommended by the manufacturer. Glass microelectrodes (1-10 Megaohms) were filled with 300 mM KCl (voltage electrode) or 3 M KCl (current electrode). The bath clamps communicated across silver chloride wires placed into each side of the recording chamber, both of which were assumed to be at a reference potential of 0 mV. Oocytes were perfused with a solution comprised of (in mM) 90 NaCl, 1 KCl, 10 HEPES, and 0.5 BaCl2; pH was adjusted by addition of 1-3 M NaOH of HCl. Oocytes were recorded under voltage clamp at −40 mV. Final concentrations for control application of glutamate (50 μM) plus glycine (30 μM) were achieved by adding appropriate volumes from 100 and 30 mM stock solutions, respectively. In addition, 10 μM final EDTA was obtained by adding a 1:1000 dilution of 10 mM EDTA, in order to chelate contaminant divalent ions such as Zn^2+. Concentration-response curves for experimental compounds were obtained by applying in successive fashion maximal glutamate/glycine, followed by glutamate/glycine plus variable concentrations of experimental compounds. Dose response curves consisting of 4 to 8 concentrations were obtained in this manner. The baseline leak current at −40 mV was measured before and after recording, and the full recording linearly corrected for any change in leak current. Oocytes with glutamate-evoked responses smaller than 50 nA were not included in the analysis. The level of inhibition by applied experimental compounds was expressed as a percent of the initial glutamate response, and averaged together across oocytes from a single frog. Each experiment consisted of recordings from 3 to 10 oocytes obtained from a single frog. Results from 3-6 experiments were pooled, and the average percent responses at antagonist concentrations were fitted by the equation,
# Percent Response=(100−minimum)/(1+([conc]/IC50)^nH)+minimum […]
# [2] = Plasma half-life (i.v./i.p. pharmacokinetics, Table 23); assay type: in vivo, Rats; settings: rat; for AUC(0-t): read-out: AUC (0-last h) i.v. XMPK; for Cmax at 30 min: 30 m
# Experimental: Animals were fasted overnight prior to dose administration and food returned to the animals two hours after dosing. Following IV dosing, blood samples (ca 200 μL) were collected into separate tubes containing anticoagulant (K-EDTA) via the orbital plexus at various times post administration. Plasma samples were prepared immediately after collection by centrifugation for ten minutes using a tabletop centrifuge, and stored at −80° C. Brain tissue was weighed, homogenized on ice in 50 mM phosphate buffer (2 ml per brain) and the homogenate stored at −80° C. Plasma and brain homogenate samples were extracted by the addition of 5 volumes of cold acetonitrile, mixed well by vortexing and centrifuged at 4000 rpm for 15 minutes. The supernatant fractions were analyzed by LC-MS/MS operating in multiple reaction monitoring mode (MRM). The amount of parent compound in each sample was calculated by comparing the response of the analyte in the sample to that of a standard curve.
# [3] = Oral absorption (p.o. pharmacokinetics, Table 25); assay type: in vivo, Rats; settings: rat, plasma; for bioavailability: read-out: % Absorbed (% F); for AUC(0-t): read-out: AUC (0-last h) p.o.
# [4] = pH 6.9, Table 21, read-out: IC50 at pH 6.9
# [5] = pH 7.6, Table 21, read-out: IC50 at pH 7.6
# [6] = iv, 1 mg/kg, 1 MPK, 0-4 hr i.v.
# [7] = iv, 1 mg/kg, 1 MPK, 0-6 hr i.v.
smiles,measurement,setting,value
CS(=O)(=O)Nc1ccc(CCC(=O)NCCNc2ccc(Cl)c(Cl)c2)cc1,IC50,[1]; [4],30 nM
same,IC50,[1]; [5],55 nM
CS(=O)(=O)Nc1ccc(CCCNCCNc2ccc(Cl)c(Cl)c2)cc1,IC50,[1]; [4],2 nM
same,IC50,[1]; [5],21 nM
CS(=O)(=O)Nc1ccc(CCCN2CCN(c3ccc(Cl)c(Cl)c3)C2=O)cc1,IC50,[1]; [4],160 nM
same,IC50,[1]; [5],809 nM
O=C(COc1ccc2[nH]c(=O)oc2c1)NCCNc1ccc(Cl)c(Cl)c1,IC50,[1]; [4],80 nM
same,IC50,[1]; [5],150 nM
CS(=O)(=O)Nc1ccc(CCC(=O)NC/C=C/c2ccc(Cl)c(Cl)c2)cc1,IC50,[1]; [4],10 nM
same,IC50,[1]; [5],70 nM
O=C(COc1ccc(O)cc1)NCCNc1ccc(Cl)c(Cl)c1,IC50,[1]; [4],280 nM
same,IC50,[1]; [5],515 nM
O=C(CCc1ccc(O)cc1)NCCNc1ccc(Cl)c(Cl)c1,IC50,[1]; [4],210 nM
same,IC50,[1]; [5],339 nM
O[C@H](COc1ccc2[nH]ccc2c1)CN1CCN(c2ccc(Cl)cc2)CC1,IC50,"[1]; pH 6.9, Table 22, read-out: IC50 pH 6.9",> 10000 nM
same,IC50,"[1]; pH 7.6, Table 22, read-out: IC50 pH 7.6",> 10000 nM
CS(=O)(=O)Nc1ccc(OC[C@@H](O)CN2CCN(c3ccc(Cl)c(Cl)c3)CC2)cc1,Cmax,"[2]; iv, 3 mg/kg, 3MPK i.v.",1070 ng/mL
same,AUC(0-t),"[2]; iv, 3 mg/kg, 3MPK, 0-4 hr i.v.",2350 ng·h/mL
NC(=O)Nc1ccc(OC[C@@H](O)CN2CCN(c3ccc(Cl)cc3)CC2)cc1 [drawing 755],IC50,"[1]; pH 6.9, Table 20, read-out: IC50 at pH 6.9",46 nM
same,IC50,"[1]; pH 7.6, Table 20, read-out: IC50 at pH 7.6",452 nM
O=C(COc1ccc2[nH]c(=O)oc2c1)N1CCN(c2ccc(Cl)c(Cl)c2)CC1 [drawing 768],IC50,[1]; [4],41 nM
same,IC50,[1]; [5],45 nM
NC(=O)Nc1ccc(OC[C@@H](O)CN2CCN(c3ccc(Cl)cc3)CC2)cc1 [drawing 786],Cmax,"[2]; iv, 1 mg/kg, 1 MPK i.v.",252 ng/mL
same,AUC(0-t),[2]; [6],1030 ng·h/mL
O=c1[nH]c2ccc(OC[C@@H](O)CN3CCN(c4ccc(F)c(F)c4)CC3)cc2[nH]1 [drawing 787],Cmax,"[2]; iv, 1 mg/kg, 1 MPK i.v.",241 ng/mL
same,AUC(0-t),[2]; [7],452 ng·h/mL
CS(=O)(=O)Nc1ccc(OC[C@@H](O)CN2CCN(c3ccc(F)c(F)c3)CC2)cc1 [drawing 789],Cmax at 30 min,"[2]; ip, 60 mg/kg, 60 MPK",13400 ng/mL
same,Cmax at 2 hr,"[2]; ip, 60 mg/kg, 60 MPK, 2 hr",13100 ng/mL
Cc1ccc(N2CCN(C[C@H](O)COc3ccc4c(c3)CCC(=O)N4)CC2)cc1 [drawing 790],Cmax,"[2]; iv, 1 mg/kg, 1 MPK i.v.",464 ng/mL
same,AUC(0-t),[2]; [7],347 ng·h/mL
Oc1ccc(OC[C@@H](O)CN2CCN(c3ccc(Cl)cc3)CC2)cc1 [drawing 791],Cmax,"[2]; iv, 1 mg/kg, 1 MPK i.v.",193 ng/mL
same,AUC(0-t),[2]; [6],187 ng·h/mL
O=c1[nH]c2ccc(OC[C@@H](O)CN3CCN(c4ccc(Cl)cc4)CC3)cc2o1 [drawing 792],Cmax,"[2]; iv, 1 mg/kg, 1 MPK i.v.",288 ng/mL
same,AUC(0-t),[2]; [6],217 ng·h/mL
Cc1ccc(N2CCN(C[C@H](O)COc3ccc4[nH]c(=O)oc4c3)CC2)cc1 [drawing 793],Cmax,"[2]; iv, 1 mg/kg, 1 MPK i.v.",568 ng/mL
same,AUC(0-t),[2]; [6],364 ng·h/mL
NC(=O)Nc1ccc(OC[C@@H](O)CN2CCN(c3ccc(Cl)cc3)C2=O)cc1 [drawing 794],Cmax,"[2]; iv, 1 mg/kg, 1 MPK i.v.",715 ng/mL
same,AUC(0-t),[2]; [7],787 ng·h/mL
O=C1N(C[C@H](O)COc2ccc(O)cc2)CCN1c1ccc(Cl)cc1 [drawing 795],Cmax at 30 min,"[2]; iv, 3 mg/kg, 3 MPK i.v.",377 ng/mL
O=C(COc1ccc2[nH]c(=O)[nH]c2c1)N1CCN(c2ccc(Cl)c(Cl)c2)CC1 [drawing 796],Cmax,"[2]; iv, 1 mg/kg, 1 MPK i.v.",576 ng/mL
same,AUC(0-t),[2]; [7],1100 ng·h/mL
O=C(COc1ccc2[nH]c(=O)oc2c1)N1CCN(c2ccc(Cl)c(Cl)c2)CC1 [drawing 797],Cmax at 15 min,"[2]; ip, 10 mg/kg, 10 MPK i.p., 15 m",960 ng/mL
O=c1[nH]c2ccc(OC[C@@H](O)CSc3nc4cc(Cl)c(Cl)cc4[nH]3)cc2o1 [drawing 798],Cmax at 30 min,"[2]; iv, 3 mg/kg, 3 MPK i.v.",398 ng/mL
Oc1ccc(OC[C@@H](O)CSc2nc3cc(Cl)c(Cl)cc3[nH]2)cc1 [drawing 799],Cmax at 30 min,"[2]; iv, 3 mg/kg, 3 MPK i.v.",413 ng/mL
NC(=O)Nc1ccc(OC[C@@H](O)CN2CCN(c3ccc(Cl)cc3)CC2)cc1 [drawing 810],Cmax,"[3]; 10 mg/kg, 10 MPK, 0-8 hr p.o.",1560 ng/mL
same,Tmax,"[3]; 10 mg/kg, 10 MPK, 0-8 hr p.o.",2.67 h
same,bioavailability,"[3]; 10 mg/kg, 10 MPK, 0-8 hr p.o.",146%
same,AUC(0-t),"[3]; 10 mg/kg, 10 MPK, 0-8 hr p.o.",8450 ng·h/mL
O=c1[nH]c2ccc(OC[C@@H](O)CN3CCN(c4ccc(F)c(F)c4)CC3)cc2[nH]1 [drawing 811],Cmax,"[3]; 5 mg/kg, 5 MPK, 0-6 hr p.o.",558 ng/mL
same,Tmax,"[3]; 5 mg/kg, 5 MPK, 0-6 hr p.o.",0.5 h
same,bioavailability,"[3]; 5 mg/kg, 5 MPK, 0-6 hr p.o.",82.2%
same,AUC(0-t),"[3]; 5 mg/kg, 5 MPK, 0-6 hr p.o.",1860 ng·h/mL
Cc1ccc(N2CCN(C[C@H](O)COc3ccc4c(c3)CCC(=O)N4)CC2)cc1 [drawing 812],Cmax,"[3]; 5 mg/kg, 5 MPK, 0-6 hr p.o.",407 ng/mL
same,Tmax,"[3]; 5 mg/kg, 5 MPK, 0-6 hr p.o.",0.33 h
same,bioavailability,"[3]; 5 mg/kg, 5 MPK, 0-6 hr p.o.",31.6%
same,AUC(0-t),"[3]; 5 mg/kg, 5 MPK, 0-6 hr p.o.",549 ng·h/mL
Cc1ccc(N2CCN(C[C@H](O)COc3ccc4[nH]c(=O)oc4c3)CC2)cc1 [drawing 813],Cmax,"[3]; 10 mg/kg, 10 MPK, 0-8 hr p.o.",57.8 ng/mL
same,Tmax,"[3]; 10 mg/kg, 10 MPK, 0-8 hr p.o.",6.7 h
same,bioavailability,"[3]; 10 mg/kg, 10 MPK, 0-8 hr p.o.",7.9%
same,AUC(0-t),"[3]; 10 mg/kg, 10 MPK, 0-8 hr p.o.",284 ng·h/mL
O=c1[nH]c2ccc(OC[C@@H](O)CN3CCN(c4ccc(Cl)cc4)CC3)cc2o1 [drawing 814],Cmax,"[3]; 10 mg/kg, 10 MPK, 0-8 hr p.o.",30.6 ng/mL
same,Tmax,"[3]; 10 mg/kg, 10 MPK, 0-8 hr p.o.",8 h
same,bioavailability,"[3]; 10 mg/kg, 10 MPK, 0-8 hr p.o.",6.2%
same,AUC(0-t),"[3]; 10 mg/kg, 10 MPK, 0-8 hr p.o.",132 ng·h/mL
Oc1ccc(OC[C@@H](O)CN2CCN(c3ccc(Cl)cc3)CC2)cc1 [drawing 815],Cmax,"[3]; 10 mg/kg, 10 MPK, 0-8 hr p.o.",10.2 ng/mL
same,Tmax,"[3]; 10 mg/kg, 10 MPK, 0-8 hr p.o.",5.3 h
same,bioavailability,"[3]; 10 mg/kg, 10 MPK, 0-8 hr p.o.",3.3%
same,AUC(0-t),"[3]; 10 mg/kg, 10 MPK, 0-8 hr p.o.",56.4 ng·h/mL
